Assay: Safety and tolerability (adverse events), Study 1 SAD in healthy participants
Type: in vivo, human
Conditions: n = 6

Cc1c(-c2c(F)cc(C(N)=O)c3[nH]c4c(c23)CC[C@H](C(C)(C)O)C4)cccc1-n1c(=O)c2cccc(F)c2n(C)c1=O [BMS-986142, 6-fluoro-5-(R)-(3-(S)-(8-fluoro-1-methyl-2,4-dioxo-1,2-dihydroquinazolin-3(4H)-yl)-2-methylphenyl)-2-(S)-(2-hydroxypropan-2-yl)-2,3,4,9-tetrahydro-1H-carbazole-8-carboxamide]
AE SOC: Gastrointestinal Disorders (SAD 5 mg): 0 n (%) | AE SOC: General disorders and administration site conditions (SAD 5 mg): 0 n (%) | AE SOC: Infections and infestations (SAD 5 mg): 0 n (%) | AE SOC: Injury, poisoning and procedural complications (SAD 5 mg): 0 n (%) | AE SOC: Musculoskeletal and connective tissue disorders (SAD 5 mg): 0 n (%) | AE SOC: Nervous system disorders (SAD 5 mg): 0 n (%) | AE SOC: Renal and urinary disorders (SAD 5 mg): 0 n (%) | AE SOC: Respiratory, thoracic and mediastinal disorders (SAD 5 mg): 0 n (%) | AE: Aphthous stomatitis (SAD 5 mg): 0 n (%) | AE: Chest pain (SAD 5 mg): 0 n (%) | AE: Contusion (SAD 5 mg): 0 n (%) | AE: Cough (SAD 5 mg): 0 n (%) | AE: Diarrhoea (SAD 5 mg): 0 n (%) | AE: Dizziness (SAD 5 mg): 0 n (%) | AE: Headache (SAD 5 mg): 0 n (%) | AE: Lip Dry (SAD 5 mg): 0 n (%) | AE: Muscle spasms (SAD 5 mg): 0 n (%) | AE: Nausea (SAD 5 mg): 0 n (%) | AE: Paraesthesia (SAD 5 mg): 0 n (%) | AE: Polyuria (SAD 5 mg): 0 n (%) | AE: Syncope (SAD 5 mg): 0 n (%) | AE: Tension headache (SAD 5 mg): 0 n (%) | AE: Thermal burn (SAD 5 mg): 0 n (%) | AE: Toothache (SAD 5 mg): 0 n (%) | AE: Upper respiratory tract infection (SAD 5 mg): 0 n (%) | AE: Vomiting (SAD 5 mg): 0 n (%) | Total participants with an event (SAD 5 mg): 0 n (%) | AE SOC: Gastrointestinal Disorders (SAD 15 mg): 1 (16.7) n (%) | AE SOC: General disorders and administration site conditions (SAD 15 mg): 0 n (%) | AE SOC: Infections and infestations (SAD 15 mg): 0 n (%) | AE SOC: Injury, poisoning and procedural complications (SAD 15 mg): 0 n (%) | AE SOC: Musculoskeletal and connective tissue disorders (SAD 15 mg): 0 n (%) | AE SOC: Nervous system disorders (SAD 15 mg): 0 n (%) | AE SOC: Renal and urinary disorders (SAD 15 mg): 0 n (%) | AE SOC: Respiratory, thoracic and mediastinal disorders (SAD 15 mg): 0 n (%) | AE: Aphthous stomatitis (SAD 15 mg): 1 (16.7) n (%) | AE: Chest pain (SAD 15 mg): 0 n (%) | AE: Contusion (SAD 15 mg): 0 n (%) | AE: Cough (SAD 15 mg): 0 n (%) | AE: Diarrhoea (SAD 15 mg): 0 n (%) | AE: Dizziness (SAD 15 mg): 0 n (%) | AE: Headache (SAD 15 mg): 0 n (%) | AE: Lip Dry (SAD 15 mg): 0 n (%) | AE: Muscle spasms (SAD 15 mg): 0 n (%) | AE: Nausea (SAD 15 mg): 0 n (%) | AE: Paraesthesia (SAD 15 mg): 0 n (%) | AE: Polyuria (SAD 15 mg): 0 n (%) | AE: Syncope (SAD 15 mg): 0 n (%) | AE: Tension headache (SAD 15 mg): 0 n (%) | AE: Thermal burn (SAD 15 mg): 0 n (%) | AE: Toothache (SAD 15 mg): 0 n (%) | AE: Upper respiratory tract infection (SAD 15 mg): 0 n (%) | AE: Vomiting (SAD 15 mg): 0 n (%) | Total participants with an event (SAD 15 mg): 1 (16.7) n (%) | AE SOC: Gastrointestinal Disorders (SAD 50 mg): 0 n (%) | AE SOC: General disorders and administration site conditions (SAD 50 mg): 0 n (%) | AE SOC: Infections and infestations (SAD 50 mg): 1 (16.7) n (%) | AE SOC: Injury, poisoning and procedural complications (SAD 50 mg): 1 (16.7) n (%) | AE SOC: Musculoskeletal and connective tissue disorders (SAD 50 mg): 1 (16.7) n (%) | AE SOC: Nervous system disorders (SAD 50 mg): 2 (33.3) n (%) | AE SOC: Renal and urinary disorders (SAD 50 mg): 0 n (%) | AE SOC: Respiratory, thoracic and mediastinal disorders (SAD 50 mg): 0 n (%) | AE: Aphthous stomatitis (SAD 50 mg): 0 n (%) | AE: Chest pain (SAD 50 mg): 0 n (%) | AE: Contusion (SAD 50 mg): 1 (16.7) n (%) | AE: Cough (SAD 50 mg): 0 n (%) | AE: Diarrhoea (SAD 50 mg): 0 n (%) | AE: Dizziness (SAD 50 mg): 0 n (%) | AE: Headache (SAD 50 mg): 2 (33.3) n (%) | AE: Lip Dry (SAD 50 mg): 0 n (%) | AE: Muscle spasms (SAD 50 mg): 1 (16.7) n (%) | AE: Nausea (SAD 50 mg): 0 n (%) | AE: Paraesthesia (SAD 50 mg): 0 n (%) | AE: Polyuria (SAD 50 mg): 0 n (%) | AE: Syncope (SAD 50 mg): 0 n (%) | AE: Tension headache (SAD 50 mg): 0 n (%) | AE: Thermal burn (SAD 50 mg): 1 (16.7) n (%) | AE: Toothache (SAD 50 mg): 0 n (%) | AE: Upper respiratory tract infection (SAD 50 mg): 1 (16.7) n (%) | AE: Vomiting (SAD 50 mg): 0 n (%) | Total participants with an event (SAD 50 mg): 2 (33.3) n (%) | AE SOC: Gastrointestinal Disorders (SAD 100 mg): 1 (16.7) n (%) | AE SOC: General disorders and administration site conditions (SAD 100 mg): 0 n (%) | AE SOC: Infections and infestations (SAD 100 mg): 0 n (%) | AE SOC: Injury, poisoning and procedural complications (SAD 100 mg): 0 n (%) | AE SOC: Musculoskeletal and connective tissue disorders (SAD 100 mg): 0 n (%) | AE SOC: Nervous system disorders (SAD 100 mg): 1 (16.7) n (%) | AE SOC: Renal and urinary disorders (SAD 100 mg): 1 (16.7) n (%) | AE SOC: Respiratory, thoracic and mediastinal disorders (SAD 100 mg): 0 n (%) | AE: Aphthous stomatitis (SAD 100 mg): 0 n (%) | AE: Chest pain (SAD 100 mg): 0 n (%) | AE: Contusion (SAD 100 mg): 0 n (%) | AE: Cough (SAD 100 mg): 0 n (%) | AE: Diarrhoea (SAD 100 mg): 0 n (%) | AE: Dizziness (SAD 100 mg): 0 n (%) | AE: Headache (SAD 100 mg): 0 n (%) | AE: Lip Dry (SAD 100 mg): 0 n (%) | AE: Muscle spasms (SAD 100 mg): 0 n (%) | AE: Nausea (SAD 100 mg): 0 n (%) | AE: Paraesthesia (SAD 100 mg): 0 n (%)
